Measurements published in patent US4442044A, “Process for preparing monoesters and diesters of N-alkyl substituted amino methyl phosphonic acid” (priority 1983, dated 1984).

Legend:
Format in all cases: in vivo
[1] = system: Barnyardgrass; experiment: post-emergent herbicidal activity, greenhouse
Procedure, shortened: (§1)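 Seeds or propagules sown in compacted top soil, grown 2–3 weeks in greenhouse, then sprayed with compound solution/suspension containing ~0.4% emulsifier at tabulated rates. Injury scored visually versus untreated controls at ~2 and 4 weeks after treatment, expressed as a herbicidal activity index.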

[2] = system: Canada Thistle; experiment: post-emergent herbicidal activity, greenhouse; settings: Table I, 4 WAT
Procedure, shortened: as §1

[3] = system: Cocklebur; experiment: post-emergent herbicidal activity, greenhouse
Procedure, shortened: as §1

[4] = system: Downy Brome; experiment: post-emergent herbicidal activity, greenhouse
Procedure, shortened: as §1

[5] = system: Hemp Sesbania; experiment: post-emergent herbicidal activity, greenhouse; settings: Table II
Procedure, shortened: as §1

[6] = system: Johnsongrass; experiment: post-emergent herbicidal activity, greenhouse; settings: Table I, 4 WAT
Procedure, shortened: as §1

[7] = system: Lambsquarters; experiment: post-emergent herbicidal activity, greenhouse
Procedure, shortened: as §1

[8] = system: Morningglory; experiment: post-emergent herbicidal activity, greenhouse
Procedure, shortened: as §1

[9] = system: Panicum Spp; experiment: post-emergent herbicidal activity, greenhouse; settings: Table II
Procedure, shortened: as §1

[10] = system: Quackgrass; experiment: post-emergent herbicidal activity, greenhouse; settings: Table I, 4 WAT
Procedure, shortened: as §1

[11] = system: Rice; experiment: post-emergent herbicidal activity, greenhouse; settings: Table II
Procedure, shortened: as §1

[12] = system: Smartweed; experiment: post-emergent herbicidal activity, greenhouse
Procedure, shortened: as §1

[13] = system: Sorghum; experiment: post-emergent herbicidal activity, greenhouse; settings: Table II
Procedure, shortened: as §1

[14] = system: Soybean; experiment: post-emergent herbicidal activity, greenhouse; settings: Table II
Procedure, shortened: as §1

[15] = system: Sugar Beet; experiment: post-emergent herbicidal activity, greenhouse; settings: Table II
Procedure, shortened: as §1

[16] = system: Velvetleaf; experiment: post-emergent herbicidal activity, greenhouse
Procedure, shortened: as §1

[17] = system: Wheat; experiment: post-emergent herbicidal activity, greenhouse; settings: Table II
Procedure, shortened: as §1

[18] = system: Wild Buckwheat; experiment: post-emergent herbicidal activity, greenhouse; settings: Table II
Procedure, shortened: as §1

[19] = system: Yellow Nutsedge; experiment: post-emergent herbicidal activity, greenhouse; settings: Table I, 4 WAT
Procedure, shortened: as §1

[20] = system: Barnyardgrass; experiment: pre-emergent herbicidal activity, soil incorporation; settings: Table III, 2 WAT, 11.2 kg/h
From the text: (§2) A good grade of top soil is placed in aluminum pans and compacted to a depth of 0.95 to 1.27 cm. from the top of each pan. A predetermined number of seeds or vegetative propagules of each of several plant species are placed on top of the soil in each pan and then pressed down. Herbicidal compositions prepared as in the previous example are applied by admixture with or incorporation in the top layer of soil.
(§3) In this method, the soil required to cover the seeds and propagules is weighed and admixed with a herbicidal composition containing a known amount of the active ingredient (compound of this invention). The pans are then filled with the admixture and leveled. Watering is carried out by permitting the soil in the pans to absorb moisture through apertures in the pan bottoms. The seed and propagule containing pans are placed on a wet sand bench and maintained for approximately two weeks under ordinary conditions of sunlight and watering. At the end of this period, the number of emerged plants of each species is noted and compared to an untreated control.
(§4) The pre-emergent herbicidal activity index used below is based upon average percent control of each species as follows: […]

[21] = system: Canada Thistle; experiment: as above; settings: Table III, 2 WAT, 11.2 kg/h
From the text: as §2, §3, §4

[22] = system: Cocklebur; experiment: as above; settings: Table III, 2 WAT, 11.2 kg/h
From the text: as §2, §3, §4

[23] = system: Downy Brome; experiment: as above; settings: Table III, 2 WAT, 11.2 kg/h
From the text: as §2, §3, §4

[24] = system: Johnsongrass; experiment: as above; settings: Table III, 2 WAT, 11.2 kg/h
From the text: as §2, §3, §4

[25] = system: Lambsquarters; experiment: as above; settings: Table III, 2 WAT, 11.2 kg/h
From the text: as §2, §3, §4

[26] = system: Morningglory; experiment: as above; settings: Table III, 2 WAT, 11.2 kg/h
From the text: as §2, §3, §4

[27] = system: Quackgrass; experiment: as above; settings: Table III, 2 WAT, 11.2 kg/h
From the text: as §2, §3, §4

[28] = system: Smartweed; experiment: as above; settings: Table III, 2 WAT, 11.2 kg/h
From the text: as §2, §3, §4

[29] = system: Velvetleaf; experiment: as above; settings: Table III, 2 WAT, 11.2 kg/h
From the text: as §2, §3, §4

[30] = system: Yellow Nutsedge; experiment: as above; settings: Table III, 2 WAT, 11.2 kg/h
From the text: as §2, §3, §4

[31] = Table II, 2** WAT, 0.056 kg/h, applied in 100 GPA THF
[32] = 2** WAT, 0.056 kg/h, applied in 100 GPA THF

CCOC(=O)CNCP(=O)(O)OC(C#N)CC (stereo not drawn) [Example 8, glycine, N-[[(1-cyanopropoxy)hydroxyphosphinyl]methyl],ethyl ester]
4 (100% control): post-emergent herbicidal activity index ([1]; Table I, 4 WAT, 11.2 kg/h) | post-emergent herbicidal activity index ([1]; Table II, 4 WAT, 1.12 kg/h) | post-emergent herbicidal activity index ([1]; Table II, 4 WAT, 5.6 kg/h) | post-emergent herbicidal activity index ([2]; 5.6 kg/h) | post-emergent herbicidal activity index ([2]; 11.2 kg/h) | post-emergent herbicidal activity index ([3]; Table I, 4 WAT, 11.2 kg/h) | post-emergent herbicidal activity index ([3]; Table II, 4 WAT, 5.6 kg/h) | post-emergent herbicidal activity index ([4]; Table I, 4 WAT, 11.2 kg/h) | post-emergent herbicidal activity index ([5]; 4 WAT, 5.6 kg/h) | post-emergent herbicidal activity index ([6]; 11.2 kg/h) | post-emergent herbicidal activity index ([7]; Table I, 4 WAT, 5.6 kg/h) | post-emergent herbicidal activity index ([7]; Table I, 4 WAT, 11.2 kg/h) | post-emergent herbicidal activity index ([7]; Table II, 4 WAT, 5.6 kg/h) | post-emergent herbicidal activity index ([9]; 4 WAT, 1.12 kg/h) | post-emergent herbicidal activity index ([9]; 4 WAT, 5.6 kg/h) | post-emergent herbicidal activity index ([10]; 5.6 kg/h) | post-emergent herbicidal activity index ([10]; 11.2 kg/h) | post-emergent herbicidal activity index ([11]; 4 WAT, 5.6 kg/h) | post-emergent herbicidal activity index ([12]; Table I, 4 WAT, 5.6 kg/h) | post-emergent herbicidal activity index ([12]; Table I, 4 WAT, 11.2 kg/h) | post-emergent herbicidal activity index ([12]; Table II, 4 WAT, 5.6 kg/h) | post-emergent herbicidal activity index ([13]; 4 WAT, 1.12 kg/h) | post-emergent herbicidal activity index ([13]; 4 WAT, 5.6 kg/h) | post-emergent herbicidal activity index ([14]; 4 WAT, 5.6 kg/h) | post-emergent herbicidal activity index ([15]; 4 WAT, 1.12 kg/h) | post-emergent herbicidal activity index ([15]; 4 WAT, 5.6 kg/h) | post-emergent herbicidal activity index ([16]; Table I, 4 WAT, 11.2 kg/h) | post-emergent herbicidal activity index ([17]; 4 WAT, 1.12 kg/h) | post-emergent herbicidal activity index ([17]; 4 WAT, 5.6 kg/h) | post-emergent herbicidal activity index ([18]; 4 WAT, 5.6 kg/h) | post-emergent herbicidal activity index ([19]; 11.2 kg/h)
3 (75-99% control): post-emergent herbicidal activity index ([1]; Table I, 4 WAT, 5.6 kg/h) | post-emergent herbicidal activity index ([3]; Table I, 4 WAT, 5.6 kg/h) | post-emergent herbicidal activity index ([3]; Table II, 4 WAT, 1.12 kg/h) | post-emergent herbicidal activity index ([4]; Table I, 4 WAT, 5.6 kg/h) | post-emergent herbicidal activity index ([4]; Table II, 4 WAT, 1.12 kg/h) | post-emergent herbicidal activity index ([4]; Table II, 4 WAT, 5.6 kg/h) | post-emergent herbicidal activity index ([6]; 5.6 kg/h) | post-emergent herbicidal activity index ([7]; Table II, 4 WAT, 1.12 kg/h) | post-emergent herbicidal activity index ([8]; Table I, 4 WAT, 11.2 kg/h) | post-emergent herbicidal activity index ([8]; Table II, 4 WAT, 1.12 kg/h) | post-emergent herbicidal activity index ([8]; Table II, 4 WAT, 5.6 kg/h) | post-emergent herbicidal activity index ([11]; 4 WAT, 1.12 kg/h) | post-emergent herbicidal activity index ([12]; Table II, 4 WAT, 1.12 kg/h) | post-emergent herbicidal activity index ([14]; 4 WAT, 1.12 kg/h) | post-emergent herbicidal activity index ([16]; Table I, 4 WAT, 5.6 kg/h) | post-emergent herbicidal activity index ([16]; Table II, 4 WAT, 1.12 kg/h) | post-emergent herbicidal activity index ([16]; Table II, 4 WAT, 5.6 kg/h) | post-emergent herbicidal activity index ([18]; 4 WAT, 1.12 kg/h) | post-emergent herbicidal activity index ([19]; 5.6 kg/h)
0 (1-24% control): pre-emergent herbicidal activity index [20] | pre-emergent herbicidal activity index [22] | pre-emergent herbicidal activity index [23] | pre-emergent herbicidal activity index [25] | pre-emergent herbicidal activity index [26] | pre-emergent herbicidal activity index [28] | pre-emergent herbicidal activity index [29]
0 (0-24% control): post-emergent herbicidal activity index [3, 31] | post-emergent herbicidal activity index [4, 31] | post-emergent herbicidal activity index [5, 32] | post-emergent herbicidal activity index [7, 31] | post-emergent herbicidal activity index [8, 31] | post-emergent herbicidal activity index [9, 32] | post-emergent herbicidal activity index [11, 32] | post-emergent herbicidal activity index [12, 31] | post-emergent herbicidal activity index [13, 32] | post-emergent herbicidal activity index [14, 32] | post-emergent herbicidal activity index [15, 32] | post-emergent herbicidal activity index [16, 31] | post-emergent herbicidal activity index [18, 32]
2 (50-74% control): post-emergent herbicidal activity index ([5]; 4 WAT, 1.12 kg/h) | post-emergent herbicidal activity index ([8]; Table I, 4 WAT, 5.6 kg/h) | pre-emergent herbicidal activity index [24] | pre-emergent herbicidal activity index [27]
3 (75-100% control): pre-emergent herbicidal activity index [21]
1 (25-49% control): post-emergent herbicidal activity index [1, 31] | post-emergent herbicidal activity index [17, 32] | pre-emergent herbicidal activity index [30]
